From publication PMC7932537, “Quantitative profiling of protease specificity” (PLoS Computational Biology, 2021)

How the values were obtained:
[1] = tested on: MMP-2; assay: Substrate phage display with NGS: relative probability (RP) of P3-P1' tetramer clusters; assay type: biochemical, human; details: MMP2;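 note: ratio of tetramer probability after protease selection to that in naive phage library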
[2] = molecular target: T1, MMP-2 (Homo sapiens, UniProt P08253); assay: K(obs) of individual phage substrates (set of 1369); assay type: biochemical; details: MMP2
T1 sequence (P08253 110-660): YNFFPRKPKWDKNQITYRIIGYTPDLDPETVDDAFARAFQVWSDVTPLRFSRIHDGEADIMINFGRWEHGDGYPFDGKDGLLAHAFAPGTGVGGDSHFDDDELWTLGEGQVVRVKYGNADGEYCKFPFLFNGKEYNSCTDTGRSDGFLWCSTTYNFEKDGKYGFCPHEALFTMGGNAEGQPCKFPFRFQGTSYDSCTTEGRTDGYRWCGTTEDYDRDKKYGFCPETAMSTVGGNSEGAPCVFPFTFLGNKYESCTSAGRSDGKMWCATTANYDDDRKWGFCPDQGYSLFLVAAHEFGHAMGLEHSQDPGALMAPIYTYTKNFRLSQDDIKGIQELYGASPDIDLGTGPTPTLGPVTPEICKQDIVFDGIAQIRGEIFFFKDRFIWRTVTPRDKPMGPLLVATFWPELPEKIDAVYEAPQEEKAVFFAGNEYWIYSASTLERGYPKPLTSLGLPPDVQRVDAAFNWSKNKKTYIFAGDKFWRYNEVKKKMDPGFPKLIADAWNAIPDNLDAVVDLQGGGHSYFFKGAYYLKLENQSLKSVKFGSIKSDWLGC

[3] = molecular target: MMP-9 (Homo sapiens, UniProt P14780); assay: as above; assay type: biochemical; details: MMP9
Sequence of MMP-9 (P14780 94-707): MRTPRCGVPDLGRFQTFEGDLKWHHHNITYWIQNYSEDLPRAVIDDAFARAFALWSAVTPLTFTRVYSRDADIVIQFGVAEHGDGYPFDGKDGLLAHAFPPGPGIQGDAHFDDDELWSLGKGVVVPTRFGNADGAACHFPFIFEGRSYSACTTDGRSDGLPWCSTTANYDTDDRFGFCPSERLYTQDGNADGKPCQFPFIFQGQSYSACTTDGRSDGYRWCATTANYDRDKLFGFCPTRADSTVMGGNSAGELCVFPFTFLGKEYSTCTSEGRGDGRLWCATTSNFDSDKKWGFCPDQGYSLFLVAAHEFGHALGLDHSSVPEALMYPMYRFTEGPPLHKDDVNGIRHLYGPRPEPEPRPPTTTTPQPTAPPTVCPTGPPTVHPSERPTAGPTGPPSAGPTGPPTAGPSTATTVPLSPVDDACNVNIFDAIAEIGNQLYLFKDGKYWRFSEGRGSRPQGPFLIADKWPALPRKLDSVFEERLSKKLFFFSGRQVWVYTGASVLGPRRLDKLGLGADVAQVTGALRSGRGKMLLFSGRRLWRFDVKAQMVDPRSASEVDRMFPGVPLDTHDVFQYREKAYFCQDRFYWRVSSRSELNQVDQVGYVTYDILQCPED

[4] = RP of the P3-P1' tetramer contained in the substrate (substrate phage display with NGS)
[5] = individual phage substrates, set of 1369 peptides, cleavage position marked by hyphen in sequence
[6] = individual phage substrates, set of 1369 peptides, hyphen in sequence marks cleavage position
[7] = RP of the P3-P1' tetramer contained in the substrate
[8] = individual phage substrate of the set of 1369 peptides, cleavage position marked by '-'
[9] = individual phage substrate of the set of 1369 peptides, dash in the sequence marks the cleavage position

| Kobs [2, 5] [M⁻¹ s⁻¹] | Kobs [3, 6] [M⁻¹ s⁻¹] | Kobs [2, 8] [M⁻¹ s⁻¹] | Kobs [3, 9] [M⁻¹ s⁻¹] | Substance | relative probability (RP) [1, 4] | relative probability (RP) [1, 7] |
| --- | --- | --- | --- | --- | --- | --- |
| 12792.1 | 292.668 |  |  | MSLGN-LTASG | 33.3542 |  |
|  |  | 1373.05 | 2837.92 | SGARA-MKWTA |  | 25.2992 |
| 2687.73 | 0 |  |  | AHFAH-LTASG | 19.6504 |  |
|  |  | 6688.74 | 2476.66 | LVGRA-LTASG |  | 7.944 |
|  |  | 4205.91 | 12792.1 | QGPWH-ITASG |  | 10.946 |
|  |  | 5889.62 | 12792.1 | GAPMN-VVTAS |  | 12.9651 |
|  |  | 7386.83 | 10866.7 | GLPMH-LTASG |  | 30.095 |
|  |  | 1327.88 | 619.843 | PCHLA-LTASG |  | 11.3603 |
|  |  | 517.582 | 1071.29 | SGAHG-LLLTA |  | 23.6336 |
|  |  | 12792.1 | 12792.1 | GQPRG-LRTAS |  | 35.2511 |
|  |  | 12792.1 | 201.585 | SGGSG-LRIGL |  | 1.9698 |
|  |  | 1154.21 | 726.013 | NHVWP-LTASG |  | 5.294 |
| 1816.46 | 951.362 |  |  | GRGAN-LKTAS | 13.1428 |  |
| 12792.1 | 1465.65 |  |  | GRAAW-LQTAS | 28.6088 |  |
|  |  | 690.17 | 261.974 | GAAHG-IFTAS |  | 8.881 |
|  |  | 7815.03 | 8941.32 | SRAYS-LTASG |  | 18.7071 |
| 0 | 0 |  |  | GGSGM-LKLQP | 1.312 |  |
| 4763.33 | 171.876 |  |  | SGFAH-LTSTA | 19.6504 |  |
| 2761.81 | 8321.48 |  |  | VMVWN-ITASG | 4.0144 |  |
|  |  | 2409.72 | 0 | SKMAH-LTASG |  | 29.5006 |

| Kobs [2, 5] [M⁻¹ s⁻¹] | Kobs [3, 6] [M⁻¹ s⁻¹] | Kobs [2, 8] [M⁻¹ s⁻¹] | Kobs [3, 9] [M⁻¹ s⁻¹] | Substance | relative probability (RP) [1, 4] | relative probability (RP) [1, 7] |
| --- | --- | --- | --- | --- | --- | --- |
|  |  | 1327.88 | 1925.41 | SGPHH-LTLTA |  | 27.4742 |
| 3964.21 | 9740.44 |  |  | TIPFY-MTASG | 8.184 |  |
| 2476.66 | 5269.78 |  |  | QKVLN-MTASG | 19.025 |  |
| 0 | 142.481 |  |  | TTHYS-LTASG | 0.1694 |  |
| 0 | 27.918 |  |  | GISFA-LTTAS | 0.5631 |  |
|  |  | 3079.62 | 451.441 | HTSNW-LTASG |  | 9.68 |
| 0 | 0 |  |  | FSQLA-MTASG | 5.241 |  |
|  |  | 5461.43 | 4763.33 | YVPTG-LTASG |  | 33.1098 |
| 10866.7 | 6396.07 |  |  | FPVLS-LTASG | 10.8506 |  |
|  |  | 10866.7 | 4470.66 | PSWRA-LTASG |  | 22.4074 |
| 56.119 | 0 |  |  | GQQMS-LRTAS | 0.2763 |  |
| 12792.1 | 0 |  |  | AFLSH-WTASG | 23.1226 |  |
|  |  | 12792.1 | 1465.65 | GTLRS-LITAS |  | 15.1373 |
| 9740.44 | 0 |  |  | GWVSY-LKTAS | 20.2936 |  |
| 12792.1 | 1870.4 |  |  | IPLLN-LTASG | 8.579 |  |
|  |  | 201.585 | 231.616 | SGVNH-LMTTA |  | 12.8499 |
| 9740.44 | 12792.1 |  |  | YLVRY-LTASG | 18.3724 |  |
| 7386.83 | 4335.13 |  |  | SIVRM-LTASG | 15.9125 |  |
|  |  | 6688.74 | 5461.43 | SGPRS-MLNTA |  | 32.6673 |
|  |  | 3253.29 | 654.784 | AYGSH-LTASG |  | 4.2785 |

| Kobs [2, 5] [M⁻¹ s⁻¹] | Kobs [3, 6] [M⁻¹ s⁻¹] | Kobs [2, 8] [M⁻¹ s⁻¹] | Kobs [3, 9] [M⁻¹ s⁻¹] | Substance | relative probability (RP) [1, 4] | relative probability (RP) [1, 7] |
| --- | --- | --- | --- | --- | --- | --- |
|  |  | 4335.13 | 12792.1 | GMPRY-MTASG |  | 28.0367 |
|  |  | 3964.21 | 4763.33 | GHAYH-LTASG |  | 15.3364 |
| 12792.1 | 12792.1 |  |  | PMVRW-LTASG | 25.891 |  |
|  |  | 0 | 0 | GHYHH-LMTAS |  | 0 |
| 0 | 0 |  |  | SGARQ-LVLTA | 3.214 |  |
| 2837.92 | 3079.62 |  |  | HWPVG-LTASG | 35.2016 |  |
|  |  | 1561.44 | 3079.62 | GRARW-LMTAS |  | 19.0362 |
| 4922.1 | 142.481 |  |  | PVFQS-LTASG | 13.5551 |  |
| 1561.44 | 171.876 |  |  | SIHLA-LTASG | 11.3603 |  |
|  |  | 12792.1 | 12792.1 | RAPAS-LTASG |  | 36.4285 |
|  |  | 6396.07 | 3253.29 | GTALP-LRTAS |  | 22.1772 |
| 3165.09 | 2687.73 |  |  | PRVWL-LTASG | 0.5351 |  |
| 2687.73 | 7386.83 |  |  | ERIYA-LTASG | 6.967 |  |
| 585.336 | 1373.05 |  |  | GRIYE-LWTAS | 0.2382 |  |
| 0 | 0 |  |  | SRYLP-MTASG | 0.4306 |  |
|  |  | 12792.1 | 12792.1 | GAPWG-IHTAS |  | 25.1508 |
| 9740.44 | 12792.1 |  |  | TTPSW-LTASG | 35.705 |  |
| 12792.1 | 10866.7 |  |  | TGVSW-LTASG | 30.6564 |  |
